Source: patent US12037346B2, “Amino-substituted heteroaryls for treating cancers with EGFR mutations” (Nuvalent, Inc., priority 2021, dated 2024)
pIC50: −log10 of the molar value.

Columns and labels:
Format in all cases: cell-based
[1] = target: Ba/F3 HER2-YVMA cells (HER2-A775_G776insYVMA) (Homo sapiens, UniProt P04626, DUP772-775, cells depend on it); test: Cell proliferation assay (CellTiter-Glo), Ba/F3 HER2-YVMA; conditions: read-out: Ba/F3 HER2-YVMA cell proliferation IC50
Experimental: The gene encoding HER2-A775_G776insYVMA (“HER2-YVMA”) was synthesized at GeneRay, cloned into the retroviral construct pMSCV-puro (Biovector), and packaged into retroviral particles. The virus was used to infect Ba/F3 cells (RIKEN) at multiplicity of infection=1 or 10 for 1 day. Infected cells were rescued in media (RPMI-1640 with 10% fetal bovine serum and 1% streptomycin and penicillin) supplemented with mouse IL-3 (10 ng/mL) for 2 days, and stable cell lines were selected by IL-3 withdrawal and puromycin (0.8 μg/mL) for 7 days. Monoclones were selected by single-cell dilution in IL-3-free medium containing puromycin ([…]). Transformation of desired genes was confirmed by Sanger sequencing and western blot using the following antibody: HER2 (CST #2242).
Ba/F3 cells were plated at 1,000 cells/well (40 μL), or NCI-H1781 or A431 cells were plated at 2,000 cells/well (40 μL), in a 384-well plate for 1 day. Test compounds (40 nL) were then added in a 3-fold dilution series using the TECAN EV0200 liquid handler and incubated for 48 hours (“2 days”), 72 hours (“3 days”), or 48 hours followed by renewal of compound solutions and further incubation for 72 hours (“2 days/3 days”). The 72-hour assay was necessary for NCI-H1781 cells, which are slow-growing, and the resupply of fresh compounds on day 3 obviated the potential confounding effects arising from compound degradation in cell media over 72 hours. Plates were equilibrated at room temperature for 15 minutes followed by addition of 40 μL CellTiter-Glo reagent (Promega). Luminescence was measured on a plate reader. Half-maximal inhibitory concentration (IC50) was calculated from percent inhibition and inhibitor concentration using four-parameter logistic regression. […] In these cases, the regression curve was drawn only for the first inflexion to accurately measure on-target growth inhibitory effect.
Ba/F3, NCI-H1781, and A431 proliferation is driven by the oncogenes in the same way that cancer cell proliferation in humans is driven by the expression of equivalent oncogenes.

[2] = system: A431 cells (amplification of the wild-type EGFR gene), phospho-ERK Thr202/Tyr204; test: Cellular phosphorylation assay, pERK (phospho-ERK Thr202/Tyr204 AlphaLISA) in A431; conditions: Homo sapiens, A-431, compound incubated for 5 hours
Experimental: (§1) Besides Ba/F3s, two commercially available cell lines were also used. NCI-H1781 is a HER2 exon20 insertion cell line bearing HER2-A775_G776insV-G776C. A431 bears amplification of the wild-type EGFR gene.
(§2) Ba/F3 cells were plated at 50,000 cells/well (40 μL), or NCI-H1781 cells or A431 cells were plated at 12,500 cells/well (40 μL), in a 384-well plate for 1 day. Test compounds (40 nL) were then added in a 3-fold dilution series using the TECAN EV0200 liquid handler and incubated for 5 hours. Only for pEGFR analysis in A431, the cells were briefly stimulated with EGF (30 ng/mL) for 15 minutes. Media were removed using Apricot Designs. Phosphoproteins were analyzed using the phospho-EGFR Tyr1068 AlphaLISA kit (“pEGFR”; PerkinElmer #ALSU-PEGFR-B10K;) phospho-ERK Thr202/Tyr204 AlphaLISA kit (“pERK”; PerkinElmer #ALSU-PERK-A10K) or the phospho-ErbB2 Tyr1221/1222 AlphaLISA kit (“pHER2”; PerkinElmer #ALSU-PEB2-A10K;) according to the manufacturer's instructions. Briefly, cells were lysed with lysis buffer (10 μL) containing protease-inhibitor and phosphatase-inhibitor cocktails. The lysates were transferred into a new optical plate, incubated with the acceptor mix (5 μL) for 1.5-2 hours at room temperature in darkness, and then mixed with the donor mix (5 μL) overnight in darkness. Fluorescence was measured on a plate reader using the appropriate AlphaLISA settings. Half-maximal inhibitory concentration (IC50) was calculated from percent inhibition and inhibitor concentration using four-parameter logistic regression. […]

[3] = target: T1, wild-type EGFR (A431 cells) (Homo sapiens, UniProt P00533); test: Cellular phosphorylation assay, pEGFR (phospho-EGFR Tyr1068 AlphaLISA) in A431; conditions: compound incubated for 5 hours, EGF (30 ng/mL) for 15 minutes
T1 construct: A431 bears amplification of the wild-type EGFR gene; endogenous in cells; host or cells: A431
Experimental: as §1, §2

Chain of Ba/F3 HER2-YVMA cells (HER2-A775_G776insYVMA) (P04626 with tags, fused parts or gaps DUP772-775): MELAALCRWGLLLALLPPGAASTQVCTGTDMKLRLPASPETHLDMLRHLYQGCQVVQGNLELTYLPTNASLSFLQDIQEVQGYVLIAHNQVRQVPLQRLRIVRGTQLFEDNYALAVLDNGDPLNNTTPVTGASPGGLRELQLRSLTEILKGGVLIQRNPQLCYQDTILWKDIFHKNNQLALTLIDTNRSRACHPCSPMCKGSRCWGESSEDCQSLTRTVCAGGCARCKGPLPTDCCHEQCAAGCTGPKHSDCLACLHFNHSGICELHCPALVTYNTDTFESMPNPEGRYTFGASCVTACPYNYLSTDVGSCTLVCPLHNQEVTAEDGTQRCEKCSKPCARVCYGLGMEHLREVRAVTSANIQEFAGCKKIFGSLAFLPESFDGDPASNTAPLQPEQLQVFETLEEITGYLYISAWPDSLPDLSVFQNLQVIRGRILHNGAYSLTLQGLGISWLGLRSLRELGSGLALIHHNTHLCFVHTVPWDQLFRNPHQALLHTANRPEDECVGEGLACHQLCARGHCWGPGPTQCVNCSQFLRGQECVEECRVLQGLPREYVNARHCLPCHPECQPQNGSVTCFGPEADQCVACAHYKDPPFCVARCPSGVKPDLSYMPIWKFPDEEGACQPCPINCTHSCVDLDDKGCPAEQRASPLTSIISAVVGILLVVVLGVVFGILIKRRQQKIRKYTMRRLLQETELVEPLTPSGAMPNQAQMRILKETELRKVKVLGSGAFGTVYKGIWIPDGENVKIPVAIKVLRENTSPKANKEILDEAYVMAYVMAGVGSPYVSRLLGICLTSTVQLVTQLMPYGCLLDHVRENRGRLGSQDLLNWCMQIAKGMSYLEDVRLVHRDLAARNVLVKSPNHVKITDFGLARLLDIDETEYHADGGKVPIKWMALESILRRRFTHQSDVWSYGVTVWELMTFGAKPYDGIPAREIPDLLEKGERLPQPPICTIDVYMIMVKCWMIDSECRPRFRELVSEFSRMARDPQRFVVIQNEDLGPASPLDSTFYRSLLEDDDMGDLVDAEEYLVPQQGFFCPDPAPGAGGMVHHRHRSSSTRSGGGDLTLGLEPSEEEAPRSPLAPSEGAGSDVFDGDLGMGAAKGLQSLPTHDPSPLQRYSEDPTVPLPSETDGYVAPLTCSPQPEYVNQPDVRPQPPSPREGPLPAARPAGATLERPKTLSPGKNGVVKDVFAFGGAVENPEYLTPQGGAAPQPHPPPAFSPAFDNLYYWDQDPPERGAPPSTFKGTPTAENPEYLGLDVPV
T1 sequence (P00533 25-1210): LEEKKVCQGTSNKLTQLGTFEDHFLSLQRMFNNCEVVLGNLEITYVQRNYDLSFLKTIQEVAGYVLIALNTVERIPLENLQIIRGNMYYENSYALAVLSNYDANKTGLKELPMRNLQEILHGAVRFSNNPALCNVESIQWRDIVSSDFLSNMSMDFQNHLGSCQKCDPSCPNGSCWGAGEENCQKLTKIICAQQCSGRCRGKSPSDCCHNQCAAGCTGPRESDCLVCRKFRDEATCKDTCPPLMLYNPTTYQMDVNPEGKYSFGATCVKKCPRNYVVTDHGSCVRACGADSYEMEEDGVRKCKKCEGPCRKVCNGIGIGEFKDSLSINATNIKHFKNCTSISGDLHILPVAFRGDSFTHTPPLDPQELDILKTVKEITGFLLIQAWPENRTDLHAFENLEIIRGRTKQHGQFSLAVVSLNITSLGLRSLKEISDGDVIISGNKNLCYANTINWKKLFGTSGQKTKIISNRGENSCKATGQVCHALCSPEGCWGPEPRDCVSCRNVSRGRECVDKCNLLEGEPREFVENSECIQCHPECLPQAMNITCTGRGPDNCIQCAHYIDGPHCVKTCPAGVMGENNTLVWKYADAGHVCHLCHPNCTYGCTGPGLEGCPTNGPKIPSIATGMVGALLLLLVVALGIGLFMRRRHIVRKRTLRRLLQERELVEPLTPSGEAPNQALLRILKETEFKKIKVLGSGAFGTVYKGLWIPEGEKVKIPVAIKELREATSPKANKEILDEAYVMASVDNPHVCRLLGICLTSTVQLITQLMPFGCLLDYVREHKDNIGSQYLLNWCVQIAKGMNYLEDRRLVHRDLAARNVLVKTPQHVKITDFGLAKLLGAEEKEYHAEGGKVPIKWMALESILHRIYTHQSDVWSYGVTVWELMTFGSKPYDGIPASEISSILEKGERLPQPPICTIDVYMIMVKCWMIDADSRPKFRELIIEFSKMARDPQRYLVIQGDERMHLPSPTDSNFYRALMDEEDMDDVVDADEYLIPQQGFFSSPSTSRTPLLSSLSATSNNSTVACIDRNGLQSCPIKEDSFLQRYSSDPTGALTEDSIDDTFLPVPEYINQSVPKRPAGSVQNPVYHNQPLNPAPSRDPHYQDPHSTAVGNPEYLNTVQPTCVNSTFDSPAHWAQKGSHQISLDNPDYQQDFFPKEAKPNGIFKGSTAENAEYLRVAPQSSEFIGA

GI50 [1] | pIC50 [2] | pIC50 [3] | Compound
< 100 nM | 6.30 to 7.00 | 6.00 to 6.30 | C=CC(=O)N1CCN(c2ncc3ncnc(Nc4ccc(Oc5ccc6c(c5)ncn6C)c(C)c4F)c3n2)C[C@H]1C [Example 68]
< 100 nM | ≤ 6.00 | ≤ 6.00 | C=CC(=O)N1CC=C(c2ccc3ncnc(Nc4ccc(Oc5ccn6ncnc6c5)c(C)c4)c3n2)C[C@@H]1C [Example 85]
100 to 500 nM | ≤ 6.00 | ≤ 6.00 | C=CC(=O)N1CCC=C(c2ccc3ncnc(Nc4ccc(Oc5ccn6ncnc6c5)c(C)c4)c3n2)C1 [Example 27]
< 100 nM |  | ≤ 6.00 | C=CC(=O)N1C(C)CN(c2ccc3ncnc(Nc4ccc(Oc5ccn6ncnc6c5)c(C)c4)c3n2)CC1C (stereo not drawn) [Example 92]
100 to 500 nM | ≤ 6.00 |  | C=CC(=O)N1CC=C(c2ncc3ncnc(Nc4ccc(Oc5ccn6ncnc6c5)c(C(F)F)c4F)c3n2)C[C@@H]1C [Example 61]
100 to 500 nM |  | ≤ 6.00 | C=CC(=O)N1CC=C(c2ccc3ncnc(Nc4ccc(Oc5ccn6ncnc6c5)c(C)c4)c3c2F)CC1 [Example 30]
< 100 nM | 6.30 to 7.00 | > 7.00 | C=CC(=O)N1CC=C(c2ccc3ncnc(Nc4ccc(Oc5ccc6ocnc6c5)c(C)c4)c3n2)CC1 [Example 10]
100 to 500 nM | ≤ 6.00 | ≤ 6.00 | C=CC(=O)N1CCC(c2ccc3ncnc(Nc4ccc(Oc5ccn6ncnc6c5)c(C)c4)c3n2)C(C)C1 (stereo not drawn) [Example 28]
< 100 nM | 6.30 to 7.00 | ≤ 6.00 | C=CC(=O)N1CCN(c2ncc3ncnc(Nc4ccc(Oc5ccn6ncnc6c5)c(C)c4F)c3n2)[C@H](C)[C@H]1C [Example 100]
< 100 nM | ≤ 6.00 | ≤ 6.00 | C=CC(=O)N1CCC(c2ncc3ncnc(Nc4cc(C)c(Oc5ccn6ncnc6c5)cc4F)c3n2)=C[C@@H]1C [Example 58]
100 to 500 nM | ≤ 6.00 | ≤ 6.00 | C=CC(=O)N1CC(c2ccc3ncnc(Nc4ccc(Oc5ccn6ncnc6c5)c(C)c4)c3n2)C1 [Example 33]
100 to 500 nM | ≤ 6.00 | ≤ 6.00 | Cc1cc(Nc2ncnc3ccc(C4=CCN(C(=O)/C=C/C5CCCN5C)CC4)nc23)ccc1Oc1ccn2ncnc2c1 (stereo not drawn) [Example 25]
< 100 nM | 6.00 to 6.30 | ≤ 6.00 | C=CC(=O)N1CC=C(c2ncc3ncnc(Nc4ccc(Oc5ccn6ncnc6c5)c(C)c4F)c3n2)C[C@H]1C [Example 80]
< 100 nM | > 7.00 | 6.30 to 7.00 | C=CC(=O)N1CCN(c2ncc3ncnc(Nc4ccc(Oc5ccc6c(c5)ncn6C)c(C)c4F)c3n2)CC1 [Example 74]
100 to 500 nM | ≤ 6.00 | ≤ 6.00 | C=CC(=O)N1CCN(c2ncc3ncnc(Nc4ccc(Oc5ccn6ncnc6n5)c(C)c4F)c3n2)C[C@H]1C [Example 65]
< 100 nM |  | 6.30 to 7.00 | C=CC(=O)N1CC=C(c2nc3c(Nc4ccc(Oc5ccn6ncnc6c5)c(C)c4)ncnc3cc2OC)CC1 [Example 66]
100 to 500 nM | ≤ 6.00 | ≤ 6.00 | C=CC(=O)N1CCC(c2ncc3ncnc(Nc4ccc(Oc5cc(C)n6ncnc6c5)c(C)c4F)c3n2)=C[C@@H]1C [Example 96]
< 100 nM |  | ≤ 6.00 | C=CC(=O)N1CCN(c2ccc3ncnc(Nc4ccc(Oc5ccn6ncnc6c5)c(C)c4F)c3c2F)CC1 [Example 93]
< 100 nM | 6.30 to 7.00 | 6.30 to 7.00 | C=CC(=O)N1CCN(c2ncc3ncnc(Nc4ccc(Oc5cc6ncnn6cn5)c(C)c4F)c3n2)C[C@H]1C [Example 73]
100 to 500 nM |  | ≤ 6.00 | C=CC(=O)N1C[C@@H]2CN(c3ncc4ncnc(Nc5ccc(Oc6ccn7ncnc7c6)c(C)c5F)c4n3)C[C@@H]2C1 [Example 46]

GI50 [1] | pIC50 [2] | pIC50 [3] | Compound
< 100 nM |  | 6.00 to 6.30 | C=CC(=O)N1CCN(c2ncc3ncnc(Nc4ccc(Oc5ccn6ncnc6c5)c(C)c4F)c3n2)CC1 [Example 98]
< 100 nM | 6.30 to 7.00 | 6.00 to 6.30 | Cc1c(Oc2ccn3ncnc3c2)ccc(Nc2ncnc3cnc(C4=CCN(C(=O)/C=C/CN(C)C)CC4)nc23)c1F [Example 69]
< 100 nM | 6.30 to 7.00 | > 7.00 | C=CC(=O)N1CC=C(c2ccc3ncnc(Nc4ccc(Oc5ccn6nccc6c5)c(C)c4)c3n2)CC1 [Example 72]
< 100 nM | 6.30 to 7.00 | > 7.00 | C=CC(=O)N1CCN(c2ncc3ncnc(Nc4ccc(Oc5ccn6ncnc6c5)c(Cl)c4F)c3n2)C[C@H]1C [Example 82]
< 100 nM | ≤ 6.00 | ≤ 6.00 | C=CC(=O)N1CC=C(c2ncc3ncnc(Nc4ccc(Oc5ccn6ncnc6c5)c(C)c4)c3n2)C[C@@H]1C [Example 95]
< 100 nM | 6.30 to 7.00 | 6.30 to 7.00 | C=CC(=O)N1CC=C(c2ccc3ncnc(Nc4ccc(Oc5ccn6ncnc6c5)c(C)c4)c3n2)C[C@H]1C [Example 86]
100 to 500 nM |  | ≤ 6.00 | C=CC(=O)N1CCC2(C1)CN(c1ncc3ncnc(Nc4ccc(Oc5ccn6ncnc6c5)c(C)c4F)c3n1)C2 [Example 47]
100 to 500 nM |  | ≤ 6.00 | C=CC(=O)N1CCN(c2ncc3ncnc(Nc4cc(C)c(Oc5ccn6ncnc6c5)cc4F)c3n2)CC1(C)C [Example 76]
< 100 nM |  | > 7.00 | C=CC(=O)N1CCN(c2ncc3ncnc(Nc4ccc(Oc5ccn6ncnc6c5)c(C)c4F)c3n2)C[C@H]1C(F)F [Example 99]
100 to 500 nM | 6.30 to 7.00 | 6.30 to 7.00 | C=CC(=O)N1CC=C(c2ccc3ncnc(Nc4ccc(Oc5ccc6ccn(C)c6c5)c(C)c4)c3n2)CC1 [Example 71]
< 100 nM | 6.30 to 7.00 | 6.30 to 7.00 | Cc1c(Oc2ccn3ncnc3c2)ccc(Nc2ncnc3cnc(C4=C[C@@H](C)N(C(=O)/C=C/CN(C)C)CC4)nc23)c1F [Example 83]
< 100 nM | ≤ 6.00 | 6.00 to 6.30 | C=CC(=O)N1CCC(c2ncc3ncnc(Nc4ccc(Oc5ccn6ncnc6c5)c(C)c4)c3n2)=C[C@@H]1C [Example 94]
< 100 nM |  | 6.30 to 7.00 | C=CC(=O)N1CCN(c2ncc3ncnc(Nc4ccc(Oc5ccn6ncnc6c5)c(C)c4F)c3n2)CC1(C)C [Example 77]
< 100 nM | 6.30 to 7.00 | 6.30 to 7.00 | C=CC(=O)N1CCN(c2ncc3ncnc(Nc4ccc(Oc5ccn6ncnc6c5)c(C)c4F)c3n2)C[C@H]1CF [Example 81]
< 100 nM | 6.30 to 7.00 | 6.00 to 6.30 | C=CC(=O)N1CCN(c2ncc3ncnc(Nc4ccc(Oc5ccc6c(c5)ncn6C)c(C)c4F)c3c2F)C[C@H]1C [Example 84]
100 to 500 nM |  | ≤ 6.00 | C=CC(=O)N1CCC2(CCN(c3ncc4ncnc(Nc5ccc(Oc6ccn7ncnc7c6)c(C)c5F)c4n3)C2)C1 (stereo not drawn) [Example 48]
< 100 nM | 6.00 to 6.30 |  | C=CC(=O)N1CC=C(c2ncc3ncnc(Nc4ccc(Oc5cc(C)n6ncnc6c5)c(C)c4F)c3n2)C[C@@H]1C [Example 97]
< 100 nM |  | 6.30 to 7.00 | C=CC(=O)N1CC=C(c2ncc3ncnc(Nc4ccc(Oc5ccn6ncnc6c5)c(C)c4F)c3n2)CCC1 [Example 57]
500 to 1000 nM |  | ≤ 6.00 | C=C(F)C(=O)N1CCN(c2ccc3ncnc(Nc4ccc(Oc5ccn6ncnc6c5)c(C)c4)c3n2)CC1 [Example 24]
